Reference: article PMC6691761, “Potential multifunctional agents with anti-hepatoma and anti-inflammation properties by inhibiting NF-кB activation” (Journal of Enzyme Inhibition and Medicinal Chemistry, 2019)

Legend:
[1] = test system: human breast cancer cells (MCF-7); test: Cytotoxicity, MTT assay, MCF-7; assay type: cell-based
In short: (§1)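 A modified MTT protocol is used: cultures in DMEM or 1640 receive serial dilutions (50 down to 0.01 μg/mL) for 24 h, then MTT for 4 h at 37 °C before reading at 570 nm.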

[2] = test system: human gastric adenocarcinoma cells (SGC7901); test: Cytotoxicity, MTT assay, SGC7901; assay type: cell-based
In short: as §1

[3] = test system: human cervical carcinoma cells (HeLa); test: Cytotoxicity, MTT assay, HeLa; assay type: cell-based
In short: as §1

[4] = test system: human normal hepatic cell line (LO2); test: Toxicity to normal cells, MTT assay, LO2; assay type: cell-based; conditions: Homo sapiens, 24 h
In short: as §1

[5] = test system: p-IκBα in LPS-stimulated RAW264.7 cells; test: LPS-stimulated phosphorylation of IκBα in RAW264.7 cells; assay type: cell-based; conditions: RAW264.7, 1.0, 2.0, 4.0 μM
Method: (§2) The HepG2 cells were treated with BAP 96 at different concentrations (1.0, 2.0, and 4.0 µM) for 3 h, and washed twice by PBS. The cells were lysed and the extracted proteins of cell lysates were separated by 10% SDS-PAGE gel electrophoresis, then transferred onto polyvinylidene fluorides membranes. The membranes were probed with antibodies and visualized using an enhanced chemiluminescence (ECL) detection kit.
(§3) It is known that NF-κB has been implicated in the crossroad of inflammation and cancer[25]^,[26]. In our previous study, some BAPs (such as 23 and 67) could inhibit NF-κB activation by inhibiting the phosphorylation of NF-κB (P65) and IκB[13]^,[14]. Herein, it is an urgent to resolve whether 96 has the same mechanism of action as 23 and 67. Therefore, the RAW264.7 cells were pretreated with LPS, and then treated with different concentrations (1.0, 2.0, 4.0 μM) of 96. […] Similarly, the HepG2 cells were pretreated with TNF-α, then treated with different concentrations (1.0, 2.0, and 4.0 μM) of 96.

[6] = test system: p-p65 in LPS-stimulated RAW264.7 cells; test: LPS-stimulated phosphorylation of p65 in RAW264.7 cells; assay type: cell-based; conditions: RAW264.7, 1.0, 2.0, 4.0 μM
Method: as §2, §3

[7] = test system: p-IκBα in TNF-α-stimulated HepG2 cells; test: TNF-α-stimulated phosphorylation of IκBα in HepG2 cells; assay type: cell-based, human; conditions: HepG2, 1.0, 2.0, and 4.0 μM
Method: as §2, §3

[8] = test system: p-p65 in TNF-α-stimulated HepG2 cells; test: TNF-α-stimulated phosphorylation of p65 in HepG2 cells; assay type: cell-based, human; conditions: HepG2, 1.0, 2.0, and 4.0 μM
Method: as §2, §3

HepG2 xenografts = HepG2 xenografts growth in nude mice; assay type: in vivo, Balb/c nude mice
Method: (§4) The HepG2 cells xenografts were established using the Balb/c nude mice (female, 7-week-old, 17–19 g, n = 30) (Shanghai Laboratory Animal Center, Shanghai Shi, China) were used to investigate the anti-hepatoma effect of 96. Animal experiments were reviewed and approved by the Binzhou Medical University Experimental Animal Committee. Briefly, HepG2 cells (1 × 10^7/0.2 ml PBS/mouse) were inoculated subcutaneously. Three days after the inoculation, the mice were randomly divided into five groups: the saline treated group (Control), 96 (0.2 mg/kg) group, 96 (1.0 mg/kg) treated group, 96 (5.0 mg/kg) treated group, and DOX (1.0 mg/kg) treated group. 96 were dissolved in saline containing 1% of DMSO and administered intraperitoneally every 2 d for 20 days. DOX was also administered intraperitoneally every 2 d for 20 d. The body weight and HepG2 xenografts volumes were recorded from the day of treatment, and xenografts volumes were calculated using the equation: tumour volume = length×(width)[2]×π/6. At the end of the experiment, mice were sacrificed and the xenografts were obtained for western blotting, HE staining and immunohistochemistry staining.

[9] = Body weight of xenograft mice; assay type: in vivo; conditions: 0.2, 1.0, 5.0 mg/kg i.p. every 2 d for 20 days
Method: as §4

[10] = test system: Bcl-2 expression in HepG2 xenografts; test: Western blot, Bcl-2 in HepG2 xenografts; assay type: in vivo, Balb/c nude mice; conditions: 0.2, 1.0 and 5.0 mg/kg
Method: as §4
Western blotting was performed to detect the expression of Bcl-2, Bax and C-caspase-3 in HepG2 xenografts. Fresh HepG2 xenografts tissues were lysed and the obtained proteins were processed as the protein obtained from the HepG2 cells.

[11] = test system: Bcl-2 expression in HepG2 xenografts; test: Immunohistochemistry staining of Bcl-2 in HepG2 xenografts; assay type: in vivo, Balb/c nude mice; conditions: 96 5.0 mg/kg, DOX 1.0 mg/kg, versus model group
Method: as §4
(§5) The HepG2 xenografts tissues were embedded using the paraffin, and sectioned for HE staining and immunohistochemistry staining. HE staining was performed routinely. The immunohistochemistry staining carried out as following. […]

[12] = test system: TNF-α expression in HepG2 xenografts; test: Immunohistochemistry staining of TNF-α in HepG2 xenografts; assay type: in vivo, Balb/c nude mice; conditions: 96 5.0 mg/kg, DOX 1.0 mg/kg, versus model group
Method: as §4, §5

[13] = quotient of IC50 towards LO2 cells

Structure (SMILES): CN1CC(=Cc2cccc(N=Cc3cc(Br)ccc3O)c2)C(=O)C(=Cc2ccccc2F)C1 [Compound 96]
- IC50 ([1]; Homo sapiens, MCF7, MTT, 24 h): 2500 ± 200 nM
- MCF-7 SI (selectivity index) [1, 13]: 8.0
- IC50 ([2]; Homo sapiens, SGC-7901, MTT, 24 h): 2400 ± 800 nM
- SGC7901 SI (selectivity index) [2, 13]: 8.3
- IC50 ([3]; Homo sapiens, HeLa, MTT, 24 h): 2100 ± 800 nM
- HeLa SI (selectivity index) [3, 13]: 9.5
- IC50 [4]: 19900 ± 400 nM
- Expression level of LPS-induced p-IκBα [5]: effectively decreased in a dose-dependent manner
- Expression level of LPS-induced p-p65 [6]: effectively decreased in a dose-dependent manner
- Phosphorylation of IκBα induced by TNF-α [7]: dose-dependent downward trend
- Phosphorylation of p65 induced by TNF-α [8]: dose-dependent downward trend
- Growth of HepG2 xenografts (HepG2 xenografts; 0.2 mg/kg intraperitoneally every 2 d for 20 days): slightly decreased the growth of HepG2 xenografts
- Growth of HepG2 xenografts (HepG2 xenografts; 1.0 mg/kg intraperitoneally every 2 d for 20 days): slightly decreased the growth of HepG2 xenografts
- Growth of HepG2 xenografts (HepG2 xenografts; 5.0 mg/kg intraperitoneally every 2 d for 20 days): significantly inhibited the growth of HepG2 xenografts
- Toxicity judged by mice body weight [9]: correspondingly nontoxic at the experimental doses
- Expression of Bcl-2 in HepG2 xenografts [10]: dose-dependently decreased
- Bcl-2 expression, immunohistochemistry [11]: significantly reduced
- TNF-α expression, immunohistochemistry [12]: significantly reduced
